Data set [1] can be described thus: Phase I metabolic stability in human liver microsomes (+/- NADPH, LC/MS). Format: in vitro ADME. The procedure: The fluorinated compounds were evaluated under the more metabolically demanding conditions of a Phase-1-type microsomal analysis. […] For this initial comparison, the 7-fluoro-dithiopomaldiomide 30 was selected owing to its combination of favorable biological parameters and general ease of synthesis. The reactions on each sample were initiated by addition of human liver microsomes in the presence or absence of an NADPH regenerating system, and compound disappearance was monitored via LC/MS (FIG. 14, Table 10).

Another data set deals with IL-6. The data set is described as follows: LPS model of inflammation in rats: IL-6 in plasma, cortex, hippocampus. The format is in vivo. Conditions: 29.57 mg/kg i.p.; LPS rat model. Here is the method:
(§1) Four hours after LPS injection, animals were euthanized, and blood and brain tissue were collected and placed on wet ice. Plasma was quickly separated from blood by centrifuge at 10,000 g. 5 min, 4° C., and brain regions of cortex, hippocampus and the rest of brain were dissected into separate vials on wet ice, then stored at −80° C. Brain tissues were then sonicated in a TRIS based lysis buffer (Mesoscale Discovery) with 3× protease/phosphatase inhibitors (Halt™ Protease and Phosphatase Inhibitor Cocktail, Thermo Fisher Scientific), were then centrifuged at 10,000 g, 10 min, 4° C., and protein concentrations were measured by Bicinchoninic acid assay (BCA, Thermo Fisher Scientific). Rat plasma, cerebral cortical and hippocampal samples were then analyzed by multi-proinflammatory cytokines ELISA (V-PLEX Proinflammatory Panel 2 Rat Kit, Mesoscale Discovery), following the manufacturer's protocol. The processes and dosages of the experiment of drug treatment effects on LPS rat model was made on the basis of our previous studies.

For the next data set, the system named is KC/GRO (CXCL1). As to the kind of experiment: LPS model of inflammation in rats: KC/GRO (CXCL1). The settings on record: 29.57 mg/kg i.p.; LPS rat model. The format is in vivo. The procedure:
as §1

The test system of another data set is chicken embryos. The data set is described as follows: Chick embryo teratogenicity. Format: in vivo. Here is the method:
Chick embryology and analysis: Chicken eggs were obtained from Henry Stewart & Co Ltd, Norfolk UK. All work with chicken embryos obeyed UK Home Office regulations and followed guidelines, standards and practices governed by the University of Aberdeen Ethics Committee (Scotland, UK). […] Embryos were incubated at 37° C. for the required time period to reach E2.5 and E4 (early and mid-developmental stages, respectively). Eggs were then opened and the embryonic membranes protecting the embryos were removed with forceps. Chicken embryos typically lie on one side, so the left side is directly against the yolk and the right side can be observed. Drug (TFBP) or Control (DMSO alone) solutions were applied in 100 μL aliquots over the middle of the embryo on its right side. Embryos were left at room temperature for 20 min before being replaced in a 37° C. incubator. Due to the limited diffusion of drugs when applied to the right side of an embryo, the right side is considered the ‘treatment’ side and the left (facing internally towards the yolk sack) is considered normal after treatment and can, thereby, act as an internal control.

Where [2] appears, read: 3.5 μM, chicken embryos age E4, N = 7.
Setting [3] is: 7.0 μM, chicken embryos age E2.5, N = 6.
The mark [4] stands for this setting: 7.0 μM, chicken embryos age E4, N = 7.
Setting [5] is: 14.0 μM, chicken embryos age E2.5, N = 6.

Molecules are shown by their SMILES. Entries after “also recorded” stand apart in the source; their conditions may differ.

The values that follow come from patent US20260055061A1, “HALOPHTHALIMIDE COMPOUNDS AND METHODS OF USE AGAINST TBI, INFLAMMATORY DISORDER, AUTOIMMUNE DISORDER, NEURODEGENERATIVE DISEASE OR VIRAL INFECTION” (The United States of America, as represented by the …, priority 2022, published 2026).

Regarding `Nc1ccc(F)c2c1C(=S)N(C1CCC(=S)NC1=O)C2=O` (stereo not drawn) [Compound 30, 4-amino-7-fluoro-2-(2-oxo-6-thioxopiperidin-3-yl)-3-thioxoisoindolin-1-one], the “more material remaining compared to non-fluorinated partner” value in data set [1] (vs 4′, human liver microsomes) is reported as “roughly 16%”. Moreover, the “more stability in the absolute sense” value in data set [1] (vs non-fluorinated 4′, human liver microsomes) is reported as 7%. For the same compound, the “stability in human liver microsomes (in words)” value in data set [1] (with and without NADPH) was “heightened resistance; also recorded: enhanced metabolic fortitude”. In addition, in the data set on IL-6, the “IL-6 in plasma, cortex, and hippocampus” value was “significantly reduce”. Moreover, the KC/GRO in brain entry in the data set on KC/GRO (CXCL1) is reported as “significantly reduce”.

In the case of `CC1(C)[C@@H]2CC[C@@]1(C)[C@@H](N1C(=O)c3c(F)c(F)c(F)c(F)c3C1=O)C2` [Compound 14, 4,5,6,7-Tetrafluoro-2-((1R,2S,4R)-1,7,7-trimethylbicyclo[2.2.1]heptan-2-yl) isoindoline-1,3-dione], the Abnormal embryos with chicken embryos (setting [2]), in the data set with chicken embryos (setting [3]) and with chicken embryos (setting [4]) was 0 each time. Also, the Dead embryos in the data set with chicken embryos (setting [2]) turned out to be 0; in the data set on chicken embryos (setting [3]) it was 2; in the data set on chicken embryos (setting [4]), 3; with chicken embryos (setting [5]), 3. Moreover, the Normal embryos came out at 7 in the data set on chicken embryos (setting [2]), 4 in the data set with chicken embryos (setting [3]), 4 with chicken embryos (setting [4]) and 2 with chicken embryos (setting [5]). Also, the “developmental anomaly in chicken embryos” value in the data set on chicken embryos (14.0 μM, a single embryo, eye on control side) is reported as “micro-opthalmia of the eye”. In addition, in the data set on chicken embryos (14.0 μM, around 48-72 h after application), the “deaths of chicken embryos” value is “three deaths”. In the data set on chicken embryos (3.5 and 7.0 μM), the “effects on embryo development” value is “No effects on embryo development”. Moreover, in the data set on chicken embryos (lower dose 3.5 μM, E2.5 and E4), the “tolerability in chicken embryos” value is given as “well tolerated”. In the data set on chicken embryos (two higher doses 7.0 and 14.0 μM), the “death rate in chicken embryos” value is given as “increasing death rate”.
